Measurements as given in patent publication US5776685A, “Protein kinase C assay” (Joslin Diabetes Center, priority 1996, dated 1998).
“Also recorded” adds a separate entry of the source.

Assays:
[1] = system: Saccharomyces cerevisiae strain 334 expressing bovine PKC alpha; assay: 45Ca2+ uptake into yeast cells expressing PKC alpha forms; assay type: cell-based; settings: for Ca2+ uptake after PMA stimulation over the control cell background: 1 μM PMA; for increase in Ca^2+ uptake (basal): without PMA stimulation, versus control cells
Protocol: FIG. 5 is a graph of the modulation of extracellular Ca2+uptake by PKC alpha wild type and mutants.
^45 Ca^2 + uptake. Expressing yeast cells after 16 h in 2% galactose medium were washed with PBS when reaching 0.5 O.D.600. 10^7 cells were suspended in 100 μl of 50 mM MES pH 6.5, 5 mM MgSO4 and incubated with 1 μM PMA for 1 h at 30 degrees C under shaking on 96-well plates. Subsequently uptake of 2 μCi 45 Ca2+ at 300 μM CaCl2 was measured for 2 hours. Cells were rapidly transferred to Multiscreen filtration microtiter plates (Millipore) and washed four times with 200 μl of 10 mM MES, 10 mM Tris, 35 mM CaC12 pH 6.0. Filters were dried and cell-associated radioactivity was determined by liquid scintillation spectroscopy.
Ca^2+ influx has been reported in response to PKC activation in a variety of eukaryotic cells such as Nitella syncarpa plasmalemma, Aplysia bag cell neurons, rat ventricular myocytes and rat pituitary cells. To test whether the measured catalytic activities and the yeast phenotype correlate with other biological responses mediated by PKC, ^45 Ca^2+ uptake into expressing cells was determined after PMA stimulation. […] These responses are consistent with the catalytic activities and phenotypic responses of the mutants: elevated basal activity of ND153, full and reduced phorbol ester-stimulated activity of normal PKC alpha and D172-225, respectively, and lack of activity for CD26.

[2] = system: bovine PKC alpha; assay: PKC catalytic activity in vitro (phosphorylation of [ser25]PKC19-31 in detergent cell extracts); assay type: biochemical; settings: for PMA and Ca^2+ stimulated mutant PKC activity: Ca^2+: Ca^2+ stimulation of in vitro catalytic activity; for PMA and Ca^2+ stimulated mutant PKC activity: PMA: PMA stimulation, common symbol for in vitro catalytic activity and PMA-mediated increase of cell doubling time; for PMA and Ca^2+ stimulated mutant PKC activity: -: no stimulus (basal), common symbol for in vitro catalytic activity and cell doubling time response; for stimulation of catalytic activity by phorbol ester: PMA + phosphatidylserine
Protocol: FIG. 4 is a graph which compares PKC mutant and wild type catalytic activities in vitro. […] Catalytic activity was stimulated by combinations of phosphatidylserine (PS), the phorbol ester PMA and calcium ions (Ca^2+). PS, open; PMA+PS, solid; Ca^2+ +PS, diagonally striped.
Cell lysis. About 6×10^8 expressing cells were washed in PBS and were resuspended in 1 ml lysis buffer containing 1% Triton X100, 50 mM Hepes pH 7.4, 15-mM NaC1, 5 mM EDTA, 5 mM EGTA, 10 μg/ml pepstatin, 40 μg/ml leupeptin, 10 μg/ml aprotinin and 200 μg/ml PMSF. Cell suspensions mixed with the same volume of acid washed glass beads (450-500 μm) were lysed mechanically by six 30 second vortexing steps interrupted by cooling on ice for at least 30 second in 50 ml screw cap polypropylene tubes. The lysate was cleared by 4,000 g centrifugation for 15 minutes at 4 degrees C and stored at […] for up to several weeks.
PKC catalytic activity. […] Phosphatidylserine in chloroform, with or without PMA was evaporated under N2 to dryness, resuspended in 20 mM Tris pH 7.5, mixed and sonicated at 4 degrees C for 45 seconds before use. To terminate the reaction the sample was placed on phosphocellulose paper (Whatman P81) which was repeatedly washed in 75 mM phosphoric acid. Bound radioactivity was determined by liquid scintillation spectroscopy.

[3] = system: bovine PKC alpha; assay: [3H]PDBu binding to yeast spheroplasts expressing PKC alpha forms; settings: 14 nM [3H]PDBu
Protocol: FIG. 3 is a graph of phorbol ester binding to cells expressing PKC alpha wild type and mutant proteins.
Phorbol ester binding. About 6×10^8 expressing cells were washed twice in 10 mM K-phosphate buffer pH 7.0, 20 mM EDTA, once in 1M sorbitol and were resuspended in 10 ml 10 mM K-phosphate buffer pH 7.0, 1.1M sorbitol, 0.5 mM CaC12. Cells were incubated with 1 U glusulase (beta-glucuronidase/arylsulfatase from Helix pomatia, Boehringer Mannheim) for about 1 hour under shaking at 30 degrees C to remove the cell wall until test cell suspensions cleared in H2 O due to cell lysis.
Both were about 13-fold elevated over background levels of control cells. Similar findings have been reported for PKC overexpression in transfected mammalian fibroblasts. […] The internal deletion of aa 172-225 led to phorbol ester binding levels reduced by 60% compared to normal PKC alpha, a potential consequence of the removal of parts of the C2 domain.

[4] = system: Saccharomyces cerevisiae strain 334 expressing bovine PKC alpha; assay: Cell doubling time of yeast cultures expressing PKC alpha wild type and mutant cDNAs; assay type: cell-based; settings: 2% galactose; for average cell doubling time: synthetic minimal medium, CD26 and ND153 values phorbol ester-independent
Protocol: FIG. 2 is a graph of cell doubling time of yeast cultures expressing PKC alpha wild type and mutant cDNAs. Freshly saturated cultures expressing control plasmids (Cont.), normal PKC alpha (PKCa) or deletion mutants D172-225, ND153 or CD26 were diluted to low cell densities. Cell growth was followed on a roller at 30 degrees C to measurable cell densities of the logarithmic growth phase at 0.2-0.6 O.D. 600. […] Average doubling times were calculated.
Yeast strains and culture conditions. PKC expression plasmids and YEp51 or YEp52 as controls were introduced into Saccharomyces cerevisiae strain 334 [MAT alpha, pep 4-3, prb1-122, ura 3-52; leu2-3, 112, reg1-501, gal1]by lithium acetate transformation See e.g., Ito et al. 1983, J. Bacterial. 153: 163. Cells were routinely grown at 30 degrees C on a culture roller or shaker in liquid culture or on 1.5% agar plates. The synthetic medium contained 2% glucose and was leucine-free to select for stable propagation of the expression plasmids. Expressing yeast colonies were identified phenotypically by replica plating on medium containing or lacking PMA. Phenol extracts of crude cell lysates were prepared to re-transform Escherichia coli DH5 alpha. PKC mutants were characterized by DNA sequencing and defined plasmids were re-introduces into S. cerevisiae 334. These strains were used in all experiments shown. 50 ml cultures were routinely inoculated from freshly saturated cultures and grown for 16 h to an optical density of 0.4 at O.D.600.
Cell doubling times were measured by O.D.600 reading of liquid cultures in the presence of 2% galactose as shown in FIG. 2 to test whether they correlate with the specific phenotypes (colony size) caused by normal mutant PKC alpha. […] A normal 4 hours doubling time was measured for all constructs in the absence of galactose.

[5] = system: Saccharomyces cerevisiae strain 334 expressing bovine PKC alpha; assay: Phenotypic screen of PKC alpha mutant activity by yeast colony size on agar plates; assay type: cell-based; settings: 2% galactose; for yeast colony size / phenotype: independent of phorbol ester; for yeast colony size: 3 days
Protocol: The phenotypic screen of PKC alpha mutant activity by yeast colony size was performed as follows. […] Plates (9 cm diameter) were photograph after 3 days.
Galactose stimulation of cDNA expression resulted for some PKC forms in specific, decreased yeast colony sizes which were either dependent on or independent of phorbol ester activation after 3 days. […] Microscopically small colonies expressing ND153 grew to visible sizes with rates independently of PMA. Colonies expressing PKC alpha grew even more slowly to visible sizes during continued incubation in the presence of PMA.

[6] = target: T1, rat PKC β-1 (Rattus norvegicus, UniProt P68403); assay: PKC beta-1 enzymatic activity in detergent cell extracts; assay type: biochemical; settings: phospholipid dependent
T1 construct: we inserted the complete protein coding cDNA of rat PKC β-1; made in house; host or cells: Saccharomyces cerevisiae strain 334, YEp51 with GAL10 promoter; crude detergent cell extract
Protocol: Duplicate measurements have routinely been made in our experiments. […] The methods described here are for the bovine PKC alpha experiments. The same or similar methods were used in the rat PKC beta-1 experiments.
PKC catalytic activity. PKC catalytic activity was measured as described in Hu et al., 1990, J. Biol. Chem. 265: 13864 by phosphorylation of 3 μg of the specific substrate peptide […] (Seq. ID No. 7) (Gibco, BRL) in the presence of 5 μCi [gamma-32P]ATP (3000 Ci/mmol) in 125 μl of 5-fold diluted cell extract for 30 min. at 25 degrees C with combinations of 160 μg/ml phosphatidylserine (Avanti Polar Lipids, Inc.), 1 μm PMA and 5 mM CaCl2. […] Bound radioactivity was determined by liquid scintillation spectroscopy.
To compare the enzymatic activity of normal and truncated PKC forms, phosphorylation of the PKC-specific substrate [ser^25 ]PKC19-31 a derivative of the pseudosubstrate sequence was measured in detergent cell extracts in response to combinations of phosphatidylserine, the phorbol ester PMA (phorbol-12-myristate-13-acetate), and Ca^2+. In the presence of phosphatidylserine alone only a background level of phosphorylation was detected in all samples including control cells which likely represents the activity of other endogenous yeast protein kinases.

T1 sequence (P68403 2-671): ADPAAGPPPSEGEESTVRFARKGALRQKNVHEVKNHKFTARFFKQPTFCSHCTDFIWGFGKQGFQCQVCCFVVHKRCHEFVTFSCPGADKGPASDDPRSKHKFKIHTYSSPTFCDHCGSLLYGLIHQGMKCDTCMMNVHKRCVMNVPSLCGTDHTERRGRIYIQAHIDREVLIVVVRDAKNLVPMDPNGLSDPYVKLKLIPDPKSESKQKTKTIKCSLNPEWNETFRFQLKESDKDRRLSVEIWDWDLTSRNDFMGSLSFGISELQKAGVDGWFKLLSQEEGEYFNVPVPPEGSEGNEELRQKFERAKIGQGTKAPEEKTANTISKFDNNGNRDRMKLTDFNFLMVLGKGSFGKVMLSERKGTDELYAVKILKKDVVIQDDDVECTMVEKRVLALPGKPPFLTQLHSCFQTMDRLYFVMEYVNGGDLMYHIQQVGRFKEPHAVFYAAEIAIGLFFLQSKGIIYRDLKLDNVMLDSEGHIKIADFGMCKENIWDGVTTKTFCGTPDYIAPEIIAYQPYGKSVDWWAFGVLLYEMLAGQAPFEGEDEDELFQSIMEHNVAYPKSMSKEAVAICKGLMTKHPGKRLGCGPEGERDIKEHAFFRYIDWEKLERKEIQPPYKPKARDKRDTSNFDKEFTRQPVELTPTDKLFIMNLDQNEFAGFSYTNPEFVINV

Substance: CD26: PKCa deletion of aa 647-672
- Ca2+ uptake after PMA stimulation over the control cell background [1]: unaffected by phorbol ester
- increase in Ca^2+ uptake (basal) [1]: same basal response as control cells
- PMA and Ca^2+ stimulated mutant PKC activity: Ca^2+ [2]: -
- PMA and Ca^2+ stimulated mutant PKC activity: PMA [2]: -
- catalytic activity under any conditions ([2]; combinations of phosphatidylserine, PMA and calcium): no activity was detected
- PMA and Ca^2+ stimulated mutant PKC activity: - [2]: -
- [3H]PDBu binding level over background levels of control cells [3]: about 13 fold
- average cell doubling time ([4]; absence of phorbol ester): 4 h
- yeast colony size / phenotype [5]: wild-type phenotype under any condition

Substance: ND153: PKCa deletion of aa 1-153
- Ca2+ uptake after PMA stimulation over the control cell background [1]: unaffected by phorbol ester
- increase in Ca^2+ uptake (basal) [1]: ~3 fold
- PMA and Ca^2+ stimulated mutant PKC activity: Ca^2+ [2]: ++
- stimulation of catalytic activity by phorbol ester [2]: PMA-unresponsive
- PMA and Ca^2+ stimulated mutant PKC activity: PMA [2]: +
- PMA and Ca^2+ stimulated mutant PKC activity: - [2]: +
- catalytic activity in the presence of phosphatidylserine alone (elevated level) [2]: 10 fold
- [3H]PDBu binding level over background levels of control cells [3]: virtually background
- average cell doubling time ([4]; absence of phorbol ester): 12 h
- yeast colony size / phenotype [5]: microscopically small colonies independent of phorbol ester activation

Substance: PKC alpha: bovine protein kinase C alpha, full length, expressed in yeast
- Ca2+ uptake after PMA stimulation over the control cell background [1]: up to 4 fold
- increase in Ca^2+ uptake (basal) [1]: 1.4 fold
- PMA and Ca^2+ stimulated mutant PKC activity: Ca^2+ [2]: ++
- stimulation of catalytic activity by phorbol ester [2]: more than 20 fold
- PMA and Ca^2+ stimulated mutant PKC activity: PMA [2]: ++
- PMA and Ca^2+ stimulated mutant PKC activity: - [2]: -
- catalytic activity in the presence of phosphatidylserine alone (elevated level) [2]: no catalytic activity was detected
- [3H]PDBu binding level over background levels of control cells [3]: about 13 fold
- increase in the cell doubling time ([4]; absence of phorbol ester): 50%
- average cell doubling time ([4]; absence of phorbol ester): 6 h
- cell doubling time ([4]; phorbol ester stimulation (1 μM PMA)): 16 h
- yeast colony size ([5]; absence of phorbol ester): reduced colony sizes
- yeast colony size ([5]; phorbol ester activation (1 uM PMA)): substantially reduced yeast colony size; also recorded: substantially further decreased to microscopically small sizes

Substance: diacylglycerol
- stimulation of PKC β-1 catalytic activity [6]: stimulated by diacylglycerol similar to PMA
